What all share (assay): Candida growth inhibition, micro-broth dilution
What all share (type): cell-based
For orientation: Broth dilution looks for growth in wells or tubes with falling amounts of substance.

In one experiment the test system is Candida albicans 5314. The settings on record: estimate. The method, then: (§1) The proteins were chemically synthesised by solid phase peptide synthesis at a purity of >90% by (GL Biochem Ltd. Shanghai, People's Republic of China). Post-synthesis, the proteins were stored lyophilised at −20° C. to maintain their integrity. The proteins were weighed and dissolved in ultrapure water as a stock solution prior to experimentation. For all assays a 1:1 dilution was made with double-strength broth, the composition of which was tailored to the specific requirements of the organism.
(§2) Antifungal activity was assessed by a micro-broth dilution method modified by Handcock for cationic peptides and proteins. Given the propensity of cationic peptides and proteins to bind polystyrene, 96-well polypropylene plates were used as an alternative. Candida species MIC analysis were performed using ½ strength potato dextrose broth (PDB).
(§3) 96-well flat-bottomed polypropylene plates were prepared 30 mins prior to inoculation. The outer wells of the plate were filled with 200 μl of diH2O to mitigate evaporation in test lanes during incubation with low volumes and for prolonged periods. Given the high cost of the synthetic proteins minimal volume of 100 μl was utilised, and preliminary testing was conducted in duplicate. 50 μl of ½ strength PDB was dispensed into all remaining wells except column 3. 100 μl was added to column 2 and acting as a ‘broth only’ sterile control. Subsequently, 100 μl of the top standard protein solution, prepared at a 2× concentration (500 μg/ml) and suspended in half-strength PDB, was added to column 3. Using a multichannel pipette, 50 μl from each well in column 3 (rows B through G) were mixed with an equal volume of broth in column 4. This procedure was repeated by serial diluting the protein down to column 10. The final […] was not transferred to lane 11 but was instead disposed of.
(§4) Candida species were grown over 48 hours on ½ strength potato dextrose agar (PDA) at a temperature of 35° C. Cells were harvested directly from the agar plates and resuspended in 2 ml of ½ PDB. The cell concentration was determined using a haemocytometer, and subsequently, cells were diluted to 1×10^5 cells/ml in ½ strength PDB, resulting in a concentration of 5,000 cells per well. 50 μl of the diluted cell suspension was added to the wells in columns 3-11, working backwards from the lowest protein concentration. This step ensured a total volume of 100 μl in each well, giving a final top standard protein concentration of 250 μg/ml in the assay. Column 11 was designated as the growth control, containing cells only.
(§5) Absorbance readings were taken at time zero (T=0) at a wavelength of 595 nm for the analysis of all Candida spp. Subsequently, all plates were incubated at 35° C. for 24 hrs. To ensure uniform resuspension of cells, a multichannel pipette was used to agitate the cell suspension. A second series of absorbance measurements at 595 nm was conducted at T=24, enabling a comprehensive assessment of growth over the 24-hour period).
(§6) The activities of synthetic plant-like defensin analogues Olv1 and Olv2 were assessed against Candida albicans sc5314 (Table 2, FIG. 5A), Candida parapsilosis (Table 3, FIG. 5B), Candida tropicalis (Table 4, FIG. 5C) and Candida krusei (Table 5, FIG. 5D).
(§7) Log IC50: The logarithm of the concentration at which 50% inhibition of growth is observed, Hill-slope: Describes the steepness of the curve; a steeper slope indicates a more cooperative binding to the target and a sharper transition between the non-effective and effective doses and IC50: The actual concentration at which 50% inhibition is achieved, derived from the Log IC50.

In another experiment the test system is Candida parapsilosis. As to conditions: estimate; for Hill-slope: dose-response curve; for IC50 / LogIC50: growth inhibition, 24 hrs, 35° C., ½ strength PDB. The method, then: as §1, §2, §3, §4, §5, §6, §7
The subject of the next experiment is Candida tropicalis. As to conditions: estimate; for Hill-slope: dose-response curve. The method, then: as §1, §2, §3, §4, §5, §6, §7
A further experiment deals with Candida krusei. Also noted: LogIC50: unit not given here. As to conditions: estimate; for Hill-slope: dose-response curve; for IC50 / LogIC50: growth inhibition, 24 hrs, 35° C., ½ strength PDB. As for the experimental part: as §1, §2, §3, §4, §5, §6, §7
The mark [1] stands for this setting: Candida albicans 5314, growth inhibition, 24 hrs, 35° C., ½ strength PDB.
The mark [2] stands for this setting: growth inhibition, 24 hrs, 35° C., ½ strength PDB.

Where no end group is shown, it is not given here.

For orientation: IC50 means the point on the concentration scale where inhibition reaches its midpoint.

Regarding “RVCSRLSKTWSGLCLNSGNCNRQCRNWEGALRGACHKRGWGFACFCYRKC (cysteines drawn unpaired) [Olv2]”, the Hill-slope in the experiment with Candida albicans 5314 (Candida albicans 5314, dose-response curve) is recorded as −11.59; with Candida parapsilosis, −3.474; with Candida tropicalis, −4.862; in the experiment with Candida krusei, −10.527. Also, the LogIC50 with Candida albicans 5314 (setting [1]) is 1.866; with Candida parapsilosis, 1.734; with Candida tropicalis (setting [2]), 1.417 log10(μg/ml); with Candida krusei, 1.606. Also, the half-inhibitory concentration (IC50) with Candida parapsilosis is 54.233 µg/mL; in the experiment on Candida tropicalis (setting [2]), 26.098 µg/mL; with Candida krusei it was 40.346 µg/mL.
With “RTCESQSHRFKGSCVSKSNCAAVCQTEGFPDGYCRGFRRRCFCSKHC (cysteines drawn unpaired) [Olv1]”, the IC50 is 94.113 µg/mL in the experiment on Candida albicans 5314 (setting [1]), 56.919 µg/mL in the experiment on Candida parapsilosis and 90.642 µg/mL with Candida krusei. The LogIC50 in the experiment on Candida albicans 5314 (setting [1]) is 1.974; in the experiment on Candida parapsilosis, 1.755; in the experiment with Candida tropicalis (setting [2]), 1.602 log10(μg/ml); in the experiment on Candida krusei it was 1.957. Also, the Hill-slope with Candida parapsilosis is recorded as −3.181; in the experiment on Candida tropicalis it was −9.410; in the experiment on Candida krusei it was −11.209.

The values are drawn from patent publication US20250257103A1, “Antimicrobial Proteins” (The Olive Feed Corporation Limited, priority 2024, published 2025).
